This series can be described thus: SEM/TEM characterisation and appearance/distribution in water. It counts as physicochemical. Conditions: in words.

SMILES strings stand for the structures.

Take `C=CCc1ccc(O)c(-c2ccc(O)c(CC=C)c2)c1` [HK, 和厚朴酚]: the distribution/appearance in water result is on record as “形成浑浊的白色浆液”.

The values above are taken from CN114848615A, “和厚朴酚小分子自主装纳米粒及制备方法” (Tianjin University, priority 2022, dated 2022).
